Measured values as given in patent US7371751B2, “Thiazole derivatives” (Hoffmann-La Roche Inc., priority 2003, dated 2008).
Like-named read-outs stand apart in the source and are kept apart here.

How the values were obtained:
[1] = target: T1, human cannabis CB1 receptor (Homo sapiens, UniProt P21554); experiment: Affinity for cannabinoid CB1 receptors, [3H]-CP-55,940 radioligand binding on HEK cell membrane preparations
T1 construct: expressed in transfected cells; host or cells: human embryonic kidney (HEK) cells, Semliki Forest Virus system, membrane preparation
Description: The affinity of the compounds of the invention for cannabinoid CB1 receptors was determined using membrane preparations of human embryonic kidney (HEK) cells in which the human cannabis CB1 receptor is transiently transfected using the Semliki Forest Virus system in conjunction with [3H]-CP-55,940 as radioligand. After incubation of a freshly prepared cell membrane preparation with the [3H]-ligand, with or without addition of compounds of the invention, separation of bound and free ligand was performed by filtration over glassfiber filters. Radioactivity on the filter was measured by liquid scintillation counting.

[2] = 5, 10 and 20 mg daily; compared to placebo; cited from earlier work
[3] = affinity for the CB1 receptor, [3H]-CP-55,940 as radioligand, HEK cell membranes, read-out: IC50

T1 sequence (P21554 whole entry): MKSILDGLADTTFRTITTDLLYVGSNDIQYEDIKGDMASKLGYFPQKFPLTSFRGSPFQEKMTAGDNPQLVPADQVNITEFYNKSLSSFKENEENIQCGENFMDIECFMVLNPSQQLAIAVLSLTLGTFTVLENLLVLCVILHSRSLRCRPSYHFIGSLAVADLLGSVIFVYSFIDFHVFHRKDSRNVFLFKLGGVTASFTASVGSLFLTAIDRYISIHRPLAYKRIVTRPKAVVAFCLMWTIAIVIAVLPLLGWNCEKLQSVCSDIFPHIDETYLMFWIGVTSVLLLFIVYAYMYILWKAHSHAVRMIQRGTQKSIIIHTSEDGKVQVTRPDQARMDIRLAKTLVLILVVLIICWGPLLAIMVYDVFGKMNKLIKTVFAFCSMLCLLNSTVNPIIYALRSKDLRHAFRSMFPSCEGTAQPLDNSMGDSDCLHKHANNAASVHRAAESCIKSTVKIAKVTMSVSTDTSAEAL

SMILES | IC50 [1] [nM] | IC50 [1, 3] [nM] | further results
O=C(c1csc(N(C(=O)c2ccc(Cl)cc2Cl)c2ccc(Cl)cc2)n1)N1CCCC1 [Example 6, 2,4-Dichloro-N-(4-chloro-phenyl)-N-[4-(pyrrolidine-1-carbonyl)-thiazol-2-yl]-benzamide] | 610 | – | –
CC(C)(C)N(CCO)C(=O)c1csc(N(C(=O)c2ccc(Cl)cc2Cl)c2ccc(Cl)cc2)n1 [Example 95, 2-[(4-Chloro-phenyl)-(2,4-dichloro-benzoyl)-amino]-thiazole-4-carboxylic acid tert-butyl-(2-hydroxy-ethyl)-amide] | 260 | – | –
O=C(c1csc(N(C(=O)c2ccc(Cl)cc2Cl)c2ccc(OC(F)(F)F)cc2)n1)N1CCCC1 [Example 147, 2,4-Dichloro-N-[4-(pyrrolidine-1-carbonyl)thiazole-2-yl]-N-(4-trifluoromethoxy-phenyl)-benzamide] | 490 | – | –
COc1ccc(N(C(=O)c2ccccc2Cl)c2nc(C(=O)NC3CCCCC3)cs2)cc1OC [Example 18, 2-[(2-Chloro-benzoyl)-(3,4-dimethoxy-phenyl)-amino]-thiazole-4-carboxylic acidcyclohexylamide] | – | 850 | –
O=C(c1cnc(N(C(=O)c2ccc(Cl)cc2Cl)c2ccc(Cl)cc2)s1)N1CCSCC1 [Example 138, 2,4-Dichloro-N-(4-chlor-o-phenyl)-N-[5-(thio-morpholine-4-car-bonyl)-thiazol-2-yl]-benz-amide] | – | 430 | –
Cc1c(C(=O)NN2CCCCC2)nn(-c2ccc(Cl)cc2Cl)c1-c1ccc(Cl)cc1 [SR 141716] | – | – | body weight [2]: significantly reduced body weight
CCCCCN(C)C(=O)c1csc(N(C(=O)c2ccc(Cl)cc2Cl)c2ccc(Cl)cc2)n1 [Example 27, 2-[(4-Chloro-phenyl)-(2,4-dichloro-benzoyl)-amino]-thiazole-4-carboxylic acid methyl-pentyl-amide] | – | 520 | –
COCCN(CCOC)C(=O)c1csc(N(C(=O)c2ccc(Cl)cc2Cl)c2ccc(Cl)cc2)n1 [Example 33, 2-[(4-Chloro-phenyl)-(2,4-dichloro-benzoyl)-amino]-thiazole-4-carboxylic acid bis-(2-methoxy-ethyl)-amide] | 550 | – | –
COc1ccc(N(C(=O)c2ccc(Cl)cc2Cl)c2nc(C(=O)NCc3ccccc3)cs2)cc1OC [Example 11, 2-[(2,4-Dichloro-benzoyl)-(3,4-dimethoxy-phenyl)-amino]-thiazole-4-carboxylic acidbenzylamide] | 810 | – | –
CCOC(=O)c1csc(N(C(=O)c2ccc(Cl)cc2Cl)c2ccc(OC)c(OC)c2)n1 [Example 2, 2-[(2,4-Dichloro-benzoyl)-(3,4-dimethoxy-phenyl)-amino]-thiazole-4-carboxylic acid ethyl ester] | – | 510 | –
O=C(NCCc1cnc[nH]1)c1csc(N(C(=O)c2ccc(Cl)cc2Cl)c2ccc(Cl)cc2)n1 [Example 43] | – | 810 | –
